Among the test systems are HS 578T breast; MDA-MB-231 breast; MDA-N; DU-145 prostate; BT-549 breast; A549 NSCLC; HCT-15 colon; P388 leukemia; SN12K1 renal; SF-268 CNS; HT29 colon; NCI-H522 lung; HCC-2998 colon; HCT-116 colon; SW-620 colon.
Common to all, as to assay: NCI tumour cell line growth inhibition, 48 h

Results on two molecules are retold here after PubChem BioAssay (NCI).

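48-hour exposure; five concentrations; linearly interpolated endpoints. GI50 marks 50% less growth. At the TGI there is no net growth.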

On to `COC(=O)C1c2cc3c(c(O)c2C(O)CC1(C)O)C(=O)c1c(O)cc2c(c1C3=O)OC1OC2(C)C(O)C(N(C)C)C1O` (stereo not given), for which the TGI was 7.21 µM with HS 578T breast; 2640 nM with MDA-MB-231 breast; 2910 nM in the experiment on MDA-N; 3.44 µM with DU-145 prostate; 17.7 µM in the experiment on BT-549 breast.

Regarding `CC1OC(=O)C(C(C)C)NC(=O)C(C(C)C)OC(=O)C(C(C)C)NC(=O)C(C)OC(=O)C(C(C)C)NC(=O)C(C(C)C)OC(=O)C(C(C)C)NC(=O)C(C)OC(=O)C(C(C)C)NC(=O)C(C(C)C)OC(=O)C(C(C)C)NC1=O` (stereo not given), the TGI was 2980 nM with A549 NSCLC; 4.53 µM with HCT-15 colon; 250 nM in the experiment with P388 leukemia; 816 nM in the experiment on SN12K1 renal; 5.09 µM with SF-268 CNS; 3.4 µM in the experiment on HT29 colon. Also, the TGI with NCI-H522 lung is below 0.1 nM; with HCC-2998 colon, 1290 nM; in the experiment on HCT-116 colon, 2910 nM; with SW-620 colon, 4.85 µM. Further, the GI50 with HCT-15 colon is 0.358 nM; in the experiment on HT29 colon, below 0.1 nM; in the experiment with NCI-H522 lung, below 0.1 nM; in the experiment on HCC-2998 colon, below 0.1 nM; with SW-620 colon, below 0.1 nM.
